Source: patent publication EP0398217B1, “Dehydrocholecalciferol derivatives” (F. HOFFMANN-LA ROCHE AG, priority 1989, dated 1990)
Marks after values point to notes of the source that are not given here.

Legend:
[1] = Soft tissue calcification in rats (45Ca radioactivity in heart and kidneys); assay type: in vivo, Ratten; settings: ratio relative to compound X (=1); for Verkalkungsverhältnis Subkutan: subcutaneous administration for 4 days; for Verkalkungsverhältnis Topisch: topical administration for 4 days
Experimental: Zum Nachweis der Verkalkung von weichem Gewebe durch die Verbindungen der Formel I erhielten Ratten subkutane Injektionen von 40 µCi ⁴⁵Ca. Die Verbindungen wurden dann subkutan oder topisch während 4 Tagen den Tieren verabreicht. Die Ratten wurden 1 Tag nach der letzten Injektion getötet. Herz und Nieren wurden entfernt und mit Salpetersäure behandelt. Es wurde die Radioaktivität einer Menge von 0,2 ml dieser Präparation gemessen.

menschlichen Sebocyten = experiment: Inhibition of sebocyte proliferation in vitro (sebocytes cultured on 3T3 fibroblast layer, cell count by haemocytometer); assay type: cell-based; settings: amount inhibiting sebocyte proliferation by 50% versus solvent-treated control culture, read-out: ED₅₀
Experimental: 22a, Abstract 46 beschriebenen Methode isoliert und auf einer Schicht von Mäusen-Fibroblasten 3T3 kultiviert. Durch enzymatische und mechanische Methoden wurde aus Hautgewebe eine Suspension von Sebocyten hergestellt. Dazu wurden die Zellen entweder in 2% Humanserum, 8% fetales Kälberserum und 4 µg/ml Dexamethason oder in 10% fetales Kälberserum und 4 µg/ml Dexamethason enthaltendem Iscove-Medium kultiviert
Den Kulturen wurden die Testverbindungen im Medium alle 48 Stunden zugegeben. Nach der letzten Zugabe wurden die Fibroblasten 3T3 mit 0,03% EDTA in PBS abgespült. Die zurückbleibenden Sebocyten-Kolonien wurden in 0,05% Trypsin/0,03% EDTA unter Bildung einer einheitlichen Zellensuspension von Sebocyten inkubiert. Die Zellen wurden dann verdünnt und mittels eines Hämocytometers gezählt.
Es wurden 10⁻² M äthanolische Lösungen der Testverbindungen vorbereitet und dann auf 10⁻⁶, 10⁻⁷, 10⁻⁸ und 10⁻⁹ M verdünnt.
Die Resultate sind in der nachstehenden Tabelle 1 als Menge der Verbindung, die die Proliferation der Sebocyten um 50% gegenüber einem Kontrollwert hemmen, angegeben. Der Kontrollwert wurde aus einer lediglich mit Lösungsmittel behandelten Zellenkultur erhalten. Tabelle 1

[2] = tested on: Talgdrüsen des Hamsterohrs; experiment: Effect on sebaceous glands of the hamster ear after oral administration (daily for 4 weeks); assay type: in vivo, syrischen Goldhamstern; settings: change of sebaceous gland cross-section
Experimental: Der Effekt von Verbindungen der Formel I auf die Talgdrüsen des Hamsterohrs nach oraler Verabreichung wurde ermittelt. Männlichen syrischen Goldhamstern wurden täglich 200 µl einer Lösung der Testverbindungen in Propylenglykol oral verabreicht. Nach 4 Wochen wurden die Tiere getötet. Die Fläche der Talgdrüsen auf den Ohren wurde ermittelt. Die Resultate sind in Tabelle 4 als Veränderung im Querschnitt der Talgdrüsen des Hamsterohrs angegeben: Tabelle 4

[3] = tested on: Talgdrüsen des Hamsterohrs; experiment: Topical activity on sebaceous glands of the hamster ear (daily application for 4 weeks); assay type: in vivo; settings: change of sebaceous gland cross-section versus acetone controls
Experimental: Die topische Wirksamkeit von Verbindungen der Formel I gegen Akne wurde an Talgdrüsen des Hamsterohrs gemessen. Versuchstieren wurden 50 µl einer Lösung der Testverbindung und Kontrolltieren 50 µl Aceton täglich auf das Ohr appliziert. Nach 4 Wochen wurden die Tiere getötet. Die Fläche der Talgdrüsen auf den Ohren wurde ermittelt. In der Tabelle 2 sind die Resultate als %-Aenderung gegenüber Kontrolltieren der Veränderung des Querschnitts der Talgdrüsen auf dem Hamsterohr angegeben: Tabelle 2

[4] = oral, 5,00 µg/kg daily in propylene glycol
[5] = topical, 10,00 µg/Hamster daily

SMILES | Verkalkungsverhältnis Subkutan [1] | Verkalkungsverhältnis Topisch [1] | EC50 (menschlichen Sebocyten) [nM] | % Veränderung ([2]; oral, 2,50 µg/kg daily in propylene glycol) | % Veränderung [2, 4] | % Veränderung ([2]; oral, 10,00 µg/kg daily in propylene glycol) | % Veränderung ([2]; oral, 20,00 µg/kg daily in propylene glycol) | % Aenderung ([3]; topical, 0,10 µg/Hamster daily) [%] | % Aenderung ([3]; topical, 1,00 µg/Hamster daily) [%] | % Aenderung [3, 5] [%] | % Veränderung ([2]; oral, 0,05 µg/kg daily in propylene glycol) | % Veränderung ([2]; oral, 0,50 µg/kg daily in propylene glycol) | % Veränderung ([2]; oral, 50,00 µg/kg daily in propylene glycol)
C=C1/C(=C\C=C2/CCC[C@]3(C)[C@@H]([C@H](C)CCCC(C)(C)O)CC[C@@H]23)C[C@@H](O)C[C@@H]1O [Verbindung X, 1α,25-Dihydroxycholecalciferol, reference compound] | 1 | 1 | 5 | – | – | – | – | – | – | – | – | – | –
C=C1CC[C@H](O)C/C1=C/C=C1\CCC[C@]2(C)C([C@H](C)C/C=C/C(C)(C)O)=CC[C@@H]12 [Verbindung D, 25-Hydroxy-16,23E-bisdehydrocholecalciferol] | >1400 | >34 | > 1000 | -15* % | -22** % | -27*** % | -36*** % | -16 | -16 | -43 | – | – | –
C=C1/C(=C\C=C2/CCC[C@]3(C)C([C@H](C)CCCC(C)(C)O)=CC[C@@H]23)C[C@@H](O)C[C@@H]1O [A, 1α,25-Dihydroxy-16-dehydrocholecalciferol] | – | – | 1 | – | – | – | – | – | – | – | – | – | –
C=C1CC[C@H](O)C/C1=C/C=C1\CCC[C@]2(C)C([C@H](C)CC#CC(C)(C)O)=CC[C@@H]12 [F, 25-Hydroxy-16-dehydro-23-didehydrocholecalciferol] | >1400 | >34 | 100 | – | -42*** % | – | – | -23 | -40 | -64 | -16* % | -23** % | -55*** %
C=C1/C(=C\C=C2/CCC[C@]3(C)C([C@H](C)CC#CC(C)(C)O)=CC[C@@H]23)C[C@@H](O)C[C@@H]1O [Verbindung E, 1α,25-Dihydroxy-16-dehydro-23-didehydrocholecalciferol] | 47 | > 1 | 1 | – | – | – | – | – | – | – | – | – | –
